# Structures can show the parent of a compound that is named as a salt.
# Biological target: T1, MMP9 (Gelatinase-B) (Homo sapiens, UniProt P14780)
# T1 construct: endogenous in cells; host or cells: THP1 human monocytic leukemia cells, TPA-stimulated; purified from culture medium
# Experiment: Assay of MMP9 (fluorogenic peptide)
# Format: biochemical
# Conditions: mean ± SEM of three independent experiments
# Experimental: MMP9 is prepared form the culture medium of THP1 human monocytic leukemia cells treated with TPA. THP1 cells are maintained in a culture of DMEM/F-12 with 10% FCS and stimulated to produce pro-MMP9 with TPA (1 nM) in serum-free medium for 48 h. All purification procedures are carried out at 4° C. The 1 liters of culture medium is concentrated to 100 ml by Centricon (Amicon) and applied to a column (1×8 cm) of gelatin-sepharose (Pharmacia) equilibrated with 50 mM Tris-Cl (pH=8.0), 300 mM NaCl. The fraction containing pro-MMP-9 is eluted with 10% DMSO in 50 mM Tris-Cl (pH=8.0), 300 mM NaCl, then dialyzed against 50 mM Tris-Cl (pH 7.5), 150 mM NaCl. The fraction is concentrated by Centricon and subjected to column chromatography of Sephadex G200 (2×20 cm) equilibrated with 50 mM Tris-Cl (pH=7.5) containing 150 mM NaCl. The purified Pro-MMP9 is stored at −80° C. as a stock and the necessary amount of pro-form is used for activation. Pro-MMP9 is activated with 1 mM aminophenyl mercury acetate (APMA, ICN Pharmaceuticals) in 50 mM Tris-Cl (pH=7.5) containing 150 mM NaCl, 10 mM CaCl2 and 0.05% Brij-35 (MMP Assay Buffer) for 18 h at 37° C., and the APMA is removed by extensive dialysis against MMP Assay Buffer. […]
# The activated MMP-9 (82 kDa) is then used to screen compounds. […] The increase of fluorescence is monitored at 460 nm with excitation at 355 nm. […]
# T1 sequence (P14780 107-707 limits assumed): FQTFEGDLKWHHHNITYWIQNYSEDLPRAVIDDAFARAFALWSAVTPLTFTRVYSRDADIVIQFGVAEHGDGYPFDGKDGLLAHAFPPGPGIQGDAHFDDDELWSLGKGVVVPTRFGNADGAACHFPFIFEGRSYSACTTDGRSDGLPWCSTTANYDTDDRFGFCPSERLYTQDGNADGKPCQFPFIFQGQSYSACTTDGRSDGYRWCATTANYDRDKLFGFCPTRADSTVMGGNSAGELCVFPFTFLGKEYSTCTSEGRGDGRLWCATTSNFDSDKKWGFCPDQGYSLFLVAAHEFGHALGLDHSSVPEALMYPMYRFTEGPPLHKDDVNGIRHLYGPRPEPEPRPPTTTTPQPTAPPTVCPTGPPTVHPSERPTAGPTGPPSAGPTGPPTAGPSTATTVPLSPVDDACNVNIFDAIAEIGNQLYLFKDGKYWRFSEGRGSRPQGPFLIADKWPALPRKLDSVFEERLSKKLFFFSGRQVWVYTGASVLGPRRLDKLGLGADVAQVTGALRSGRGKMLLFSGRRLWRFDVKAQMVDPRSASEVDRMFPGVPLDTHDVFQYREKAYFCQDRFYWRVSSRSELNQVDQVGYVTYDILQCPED
smiles,measurement,value
"CN(C)c1ccc(CN(CC(=O)NO)S(=O)(=O)c2ccc(OCC3CC3)cc2)cc1 [Example 2, 2-[(4-Cyclopropylmethoxy-benzenesulfonyl)-(4-dimethylamino-benzyl-amino]-N-hydroxy-acetamide HCl salt]",IC50,2.57 ± 0.27 nM

# Reference: patent US7659293B2, “α-Amino-N-hydroxy-acetamide derivatives” (Novartis AG, priority 2001, dated 2010)
